Laboratory results as given in patent publication US4824855A, “1,4-dihydropyridine derivatives” (Sanwa Kagaku Kenkyusho Co., Ltd., priority 1985, dated 1989).
Entries after “also recorded” stand apart in the source; their conditions may differ. Read-outs that look alike come from different tables or passages of the source.

Key:
[1] = tested on: vertebral arterial blood flow; experiment: Effect of compounds on vertebral arterial blood flow in anesthetized dogs; assay type: in vivo, mongrel dogs; details: 1 μg/kg, i.v.
Protocol: (§1) An experiment was carried out by anesthetizing adult male and female mongrel dogs (weight; 10-20 kg) with Nembutal (30 mg/kg i.p.) and artificially respiring (20 ml/kg/stroke, 20 strokes/min) the animals.
(§2) Right vertebral and femoral arteries were exposed and each probe of electro-magnetic flow meter was fitted therein to measure vertebral and femoral arterial blood flow. A cannula was inserted into descending aorta from left femoral artery in order to measure blood pressure by pressure transducer connected to amplifier. Each of test compounds dissolved in 50% ethanol solution (1 μg/kg, i.v.) was administered from the cannula into cephlic vein.

[2] = tested on: femoral arterial blood flow; experiment: Effect of compounds on femoral arterial blood flow in anesthetized dogs; assay type: in vivo, mongrel dogs; details: 1 μg/kg, i.v.
Protocol: as §1, §2

diastolic blood pressure = experiment: Effect of compounds on diastolic blood pressure in anesthetized dogs; assay type: in vivo, mongrel dogs; details: 1 μg/kg, i.v.
Protocol: as §1, §2

[3] = tested on: spiral strip of New Zealand white rabbit aorta; experiment: Ca antagonistic effect (Magnus method, Ca-induced contraction after K depolarization); assay type: cell-based
Protocol: Ca antagonistic effect was examined on a spiral strip of New Zealand white rabbit aorta with the Magnus method. The response of preparations was recorded isometically on a recorder. […] The data given in following Table 1 are presented as inhibitory % to concentration without the compound.

left atrium = experiment: Negative inotropic effect on electrically driven left atrium; assay type: cell-based, New Zealand white rabbit; details: Oryctolagus cuniculus; for IC50: read-out: ID50 (× 10^-4); for inhibition at 100 µM: Concentration of the compound 10^-4 mol; for inhibition at 10 µM: Concentration of the compound 10^-5 mol
Protocol: New Zealand white rabbit was killed by bleeding from the carotid artery and the left atrium was quickly removed. […] The response of preparations was recorded isometically on a recorder. The initial tension applied to the preparation was adjusted to 1 g.

[4] = related arts; cited from earlier work
[5] = tested on: spontaneously hypertensive male rats; experiment: Blood pressure depressing action (systolic pressure); assay type: in vivo; details: 3.0 mg/kg oral
Excerpt: The testing or control compound was orally administered to the indicated number (N) of spontaneously hypertensive male rats (15 or more weeks old).

[6] = Acute toxicity (oral, Litchfield-Wilcoxon method); details: mouse, in vivo, dd mice, observation for 72 hours
Protocol: Male and female dd mice were used (weight: 18-20 g). Each of compounds to be tested was dissolved in 1% Nikkol and administered directly into stomach by forced oral administration and with use of a metal sonde. LD50 of the compounds were calculated by Litchfield-Wilcoxon method, after observation for 72 hours.

[7] = tested on: vertebral arterial blood flow; experiment: Vertebral and femoral arterial blood flow increasing action (ED50); assay type: in vivo; details: Canis lupus familiaris, iv; amount required to increase the vertebral arterial blood flow by 50%, anesthetized dogs
Protocol: The bloodflow increasing action of the compounds was measured on anesthetized dogs, in a manner similar to that of Pharmaceutical Test Example 3, to obtain the results shown in Table 6 below:
ED50 in the Table indicates the amount of the compound required to increase the vertebral arterial blood flow by 50%.

[8] = compound 10^-7 mol, Concentration of Ca ion 2.5 mM
[9] = compound 10^-7 mol, Concentration of Ca ion 5.0 mM
[10] = compound 10^-8 mol, Concentration of Ca ion 2.5 mM
[11] = compound 10^-8 mol, Concentration of Ca ion 5.0 mM
[12] = negative inotropic effect, compound concentrations in the table in mol

Structure (SMILES) | Change (%) VABF [1] [%] | Change (%) FABF [2] [%] | Change (%) DBP (diastolic blood pressure) [%] | Inhibitory (%) [3, 8] [%] | Inhibitory (%) [3, 9] [%] | Inhibitory (%) [3, 10] [%] | Inhibitory (%) [3, 11] [%] | inhibition at 100 µM (left atrium; read-out: Change (%)) [%] | inhibition at 10 µM (left atrium; read-out: Change (%)) [%] | effect on cerebral blood flow [4] | Systolic pressure (change from pre-value) ([5]; 1 hr) [mm Hg] | Systolic pressure (change from pre-value) ([5]; 2 hr) [mm Hg] | Systolic pressure (change from pre-value) ([5]; 4 hr) [mm Hg] | Systolic pressure (change from pre-value) ([5]; 6 hr) [mm Hg] | Systolic pressure (change from pre-value) ([5]; 24 hr) [mm Hg] | IC50 (left atrium; [12]) [µM] | LD50 at 72 h [6] [mg/kg] | also measured
COc1ccc(CN(C)CCOC(=O)C2=C(C)NC(C)=C(C(=O)OCC3CC3)C2c2cccc([N+](=O)[O-])c2)cc1 (centres unmarked) [Example 4, 3-cyclopropylmethyl 5-[2-[N-(4-methoxybenzyl)-N-methylamino]ethyl] 1,4-dihydro-2,6-dimethyl-4-(3-nitrophenyl)pyridine-3,5-dicarboxylate] | 33 ± 5 | 19 ± 6 | -6 ± 1 |  |  |  |  |  |  |  |  |  |  |  |  |  |  | 
COC(=O)C1=C(C)NC(C)=C(C(=O)OC)C1c1ccccc1[N+](=O)[O-] [Nifedipine, dimethyl ester of 1,4-dihydro-2,6-dimethyl-4-(2-nitropheny)pyridine-3,5-dicarboxylic acid] |  |  |  | > 100 | > 100 | 63.5 ± 7.33 | 62.3 ± 7.91 | 19 | 9.5 | tendency of causing a relative decrease on cerebral blood flow | -19.3 ± 4.41 | -10.6 ± 3.14 | -4.3 ± 2.70 | -0.1 ± 1.56 | -1.1 ± 1.06 |  |  | IC50 (left atrium): 120 µM; pharmaceutical activities [4]: coronary vasodilating action, blood pressure depressing action; also recorded: powerful depressing action
CC1=C(C(=O)OCCN(C)Cc2ccc(Cl)cc2)C(c2cccc([N+](=O)[O-])c2)C(C(=O)OCC2CC2)=C(C)N1 (centres unmarked) [Example 3, 3-[2-[N-(4-chlorobenzyl)-N-methylamino]ethyl] 5-cyclopropylmethyl 1,4-dihydro-2,6-dimethyl-4-(3-nitrophenyl)pyridine-3,5-dicarboxylate] | 56 ± 12 | 23 ± 8 | -8 ± 1 |  |  |  |  |  |  |  |  |  |  |  |  |  |  | 
COC(=O)C1=C(C)NC(C)=C(C(=O)OCCN(C)Cc2ccccc2)C1c1cccc([N+](=O)[O-])c1 (centres unmarked) [Nicardipine, 1,4-dihydro-2,6-dimethyl-4-(3-nitrophenyl)-pyridine-3,5-dicarboxylic acid 3-2-(N-benzyl-N-methylamino)ethyl 5-methyl ester] | 32 ± 7 | 14 ± 5 | -10 ± 1 | 90.9 ± 12.06 | 83.2 ± 15.93 | 26.5 ± 18.40 | 16.3 ± 21.28 | 25.6 | 13.5 | high cerebral blood flow increasing action | -10.0 ± 2.28 | -5.7 ± 1.61 | -3.0 ± 2.01 | -1.0 ± 1.50 | -4.2 ± 1.88 | 34 | 305 | inhibition at 1 µM (left atrium; Concentration of the compound 10^-6 mol, read-out: Change (%)): 3.4%; ED50 [7]: 0.0042 mg/kg
CC1=C(C(=O)OCCN(C)Cc2ccccc2)C(c2cccc([N+](=O)[O-])c2)C(C(=O)OCC2CC2)=C(C)N1 (centres unmarked) [Example 1, 3-cyclopropylmethyl 5-[2-(N-benzyl-N-methylamino)ethyl] 1,4-dihydro-2,6-dimethyl-4-(3-nitrophenyl)pyridine-3,5-dicarboxylate] | 51 ± 13 | 25 ± 8 | -9 ± 1 | 94.7 ± 3.72 | > 100 | 76.1 ± 6.62 | 81.3 ± 5.46 | 15.7 | 7.4 |  |  |  |  |  |  | 320 | 211 | 
